{"source": "patent US11060066B2", "about": "“Human pluripotent stem cell-based models for predictive developmental neural toxicity” (priority 2014, dated 2021)", "test_system": "3D neural constructs", "assay_type": "cell-based, human", "protocol": "For toxicity screening experiments, cells were seeded as described above (Examples 1 and 2), but with 65,000 cells/well for ECs+MSCs (also 5:1 ratio) and 15,000 cells/well for microglia/macrophage precursors. Neural constructs were treated with non-toxic or toxic compounds starting at day 14, with media exchanged every 2 days. The following screening protocol was developed by the Thomson lab. Toxic chemicals (FIG. 10E) were chosen based on previous literature support for neurotoxicity (Adams et al., Neurotoxicol Teratol 15(3):193-202 (1993); Cooper et al., Science 280(5369):1603-1607 (1998); Crofton et al., ALTEX-Altern Anim Exp 28(1):9-15 (2011); Eskes et al. (2003); Grandjean et al., Lancet Neurol. 13:330 (2014); Lidsky (2003); Radio et al., Neurotoxicol Teratol 32(1):25-35 (2010); Zurich (2002)). […]\nAfter reverse transcription, RNA is removed by RNaseA and RNaseH treatment. […] The indexed cDNA libraries were pooled and sequenced on an Illumina HiSeq2500 with a single 51 bp read and a 10 bp index read.\nRSEM expected read counts for each gene were determined by median normalization (utilizing the median normalization function within EB Seq—version 1.5.3) (Leng et al., Bioinformatics 29(8):1035-1043 (2013)). […]", "data": [{"smiles": "CCCCCCCC/C=C\\CCCCCCCC(=O)O", "note": "[oleic acid]", "values": [{"measurement": "SVM prediction as toxic or non-toxic (control)", "value": "neurotoxin"}, {"measurement": "SVM probability of being toxic (ranking of blinded compounds)", "setting": "human", "value": "higher probability of being toxic than L-741,626 and Ouabain"}]}]}
